# Assay results taken from patent US20100034903A1, “SHINYLEAF YELLOWHORN EXTRACT, METHODS FOR EXTRACTION AND USES THEREOF” (priority 2006, published 2010).
# What was measured:
# [1] = test system: external bladder sphincter of the rabbit; experiment: Bioelectricity of the extracellular electrode of the external bladder sphincter of the rabbit; assay type: in vivo; conditions: 0.4 mg/kg, gavage
# Excerpt: Experimental method: surgically implant indwelling electrode and record the changes of the external bladder sphincter of the rabbit with a physiological recorder. Administration mode: gavage administration. The adrenomimetic drug Midodrine is a selective α1 adrenoceptor agonist, commonly used for treating of stress incontinence clinically.
# [2] = test system: water-load mice; experiment: Urination frequency of water-load mice; assay type: in vivo; conditions: imipramine 0.01 g/kg*d × 10, gavage
# Excerpt: The experimental animal strains used herein are the SPF KM mice and Wistar rats. Each rat or mouse receives gavage drug administration. Shinyleaf yellowhorn extract is the refined extract from Refining Example IV, in the form of capsules. The control drug is imipramine, which has a strong anti-depression action and a weak atropine-like action, and is often used for treatment of the depression and children enuresis. The experimental method is calculating the urination frequency of mice based on the colorable reaction taking place when the dried potassium iodide and starch are mixed with the urine.
# [3] = test system: excised smooth muscle of bladder of rats; experiment: Relaxation of excised smooth muscle of bladder of rats; assay type: cell-based; conditions: rat bladder smooth muscle strips; 12 experiments
# Excerpt: The experimental animal strain used herein is the SPF Wistar rats. The experiment process is as follows: the rat bladder is surgically excised to prepare the strips of smooth muscle; place the smooth muscle in the thermostat nutrient solution, and then added with Shinyleaf yellowhorn extract (the refined extract from Refining Example IV, in the form of capsules) and the imipramine respectively, under the oxygen supply conditions, to observe the changes in smooth muscle.
# [4] = test system: dementia rat model; experiment: Avoidance conditioned reflex of the dementia rat model with destructed cholinergic neuron and Meynert basal ganglia; assay type: in vivo; conditions: 0.2 g/kg, gavage
# Excerpt: The animal model of senile dementia is established pursuant to the method disclosed in “Experimental Alzheimer's Disease Animal Model with Destructed Cholinergic Neuron” (Pharmacological Experimental Methodology, Third Edition, […]). The kainic acid is a receptor agonist for the central exciting neurotransmitter glutamate, which has been widely used as a tool drug to establish the neurotoxicity model by the international community. Administration mode: gavage administration. The Piracetam-NEGPF [piracetam, […] acetamide, amide pyrrole ring (ketone)] is a brain metabolism nootropics that can protect and repair cranial nerve cells, promote the transformation of ADP into ATP in the brain and the synthesis of acetylcholine and prevent against the brain function injury caused by the physical and chemical factors, and is used in clinic for the treatment of the brain function disorder due to aging, cerebral vascular accident, traumatic brain injury, and CO poisoning.
# [5] = test system: mouse sleeping model by sodium pentobarbital; experiment: Sleeping hours of the mouse (sodium pentobarbital sleep model); assay type: in vivo; conditions: mice, 0.02 g/kg gavage one hour prior to sodium pentobarbital
# Excerpt: Establish the animal model of sleeping of the mouse by an intraperitoneal injection of sodium pentobarbital. Administer drug by gavage administration one hour prior to the injection, so as to observe the recovery time for the righting reflex of the mouse. Administration mode: gavage administration. The telucidone (meclofenoxate, or centrofenoxine) has an exciting action on central nerve and commonly used for the clinical treatment of traumatic unconscious disturbance and children enuresis.
smiles,measurement,setting,value
COc1ccc(OC)c(C(O)CNC(=O)CN)c1 (centres unmarked) [Midodrine],Frequency,[1],35.4 ± 11.6 times/min
same,Time duration,[1],18.7 ± 10.3 min
same,Wave amplitude,[1],14.9 ± 6.7 mv
"CN(C)CCCN1c2ccccc2CCc2ccccc21 [Imipramine, imipramine]",Urination frequency,[2]; 0.5 h,0.9 ± 0.7 times/each
same,Urination frequency,[2]; 1.0 h,2.9 ± 1.3 times/each
same,Urination frequency,[2]; 2.0 h,2.6 ± 1.5 times/each
same,Urination frequency,[2]; 3.0 h,1.3 ± 0.8 times/each
same,Concentration of solution as smooth muscle shows complete relaxation,[3],0.15 mg/mL
"NC(=O)CN1CCCC1=O [Piracetam-NEGPF, piracetam]",Latency,[4]; 72 h post stopping of training,4.6 ± 0.7 s
same,Positive rate,[4]; 72 h post stopping of training,58.2 ± 7.4 %
same,Latency,[4]; The fifth day,2.6 ± 0.6 s
same,Positive rate,[4]; The fifth day,71.05 ± 8.2 %
same,Latency,[4]; The first day,7.1 ± 3.3 s
same,Positive rate,[4]; The first day,30.5 ± 12.7%
same,Latency,[4]; The third day,4.4 ± 1.0 s
same,Positive rate,[4]; The third day,57.6 ± 8.0 %
"CN(C)CCOC(=O)COc1ccc(Cl)cc1 [Telucidone, meclofenoxate]",Hour of sleep,[5],61.2 ± 10.7 min
